Assay [1] has as its system CD-1 mouse. The experiment in a line: In Vivo 3-MPA-Induced Convulsions (tonic hindlimb extension). Conditions: Mus musculus. As for the experimental part:
In the CD-1 mouse, i.p. injection of 3-MPA produces clonic seizures, tonic hindlimb extension and death. Seizures begin within 2-3 minutes after injection. The dose-response for induction of tonus by 3-MPA is unusual. The incidence of tonus increases rapidly from 35 to 50 mg/kg and remains constant at a less than maximal level over a broad dose range. 3-MPA doses from 50 to 150 mg/kg produce tonus in approximately 75% of the treated mice. The incidence of death over this dose range is variable and less than maximal.
In order to test for antagonism of 3-MPA-induced tonus, the lowest dose of 3-MPA that produced tonus consistently in 75% of the animals (50 mg/kg i.p.) was chosen. Test compounds were administered subcutaneously 30-40 minutes prior to i.p. administration of 3-MPA. Immediately after 3-MPA administration, each mouse was placed in a small cage made of steel rods. The mice were then observed for the presence or absence of tonic hindlimb extension. Reduction (from 75%) in the incidence of tonic hindlimb extension was considered protection from 3-MPA-induced convulsions. The dose of the test compound varied using groups of ten mice per dose until dose response curves are constructed, and ED50 's are calculated.

Assay [2] concerns hippocampal neurons. The assay is described as follows: Glutamate Toxicity Survival Assay, cultured hippocampal neurons (MTT). The format is cell-based, Sprague-Dawley rat. Conditions: 5 μM compound.
Description: Hippocampal neurons were obtained from embryonic day 17 Sprague-Dawley rats. The brains were removed and the hippocampus dissected, placed in ice-cold Leibovitz L-15 medium, carefully stripped of any remaining meninges, and minced into small pieces using scissors. […] Following incubation, the cells were rinsed with 10% serum-containing medium and dissociated by gentle trituration using a reduced bore diameter Pasteur pipet. The cells were plated on a polylysine-coated (0.5 rg/ml, Sigma) 96-well microtiter plates at 30,000 cells/well.
The neuronal survival assay utilized the compound MTT [3-(4,5-dimethylthiazol-2-yl)-2,5-diphenyl tetrazolium bromide], a pale yellow substrate that is cleaved by the mitochondrial enzyme succinate-dehydrogenase to yield a dark blue formazan product. This process requires active mitochondria, present only in live cells. Cultures of hippocampal neurons grown in 96-well plates were incubated with 1 mg/ml MTT at 36° C. in a 10% CO2 -in-air incubator for 30-60 minutes. At the end of the incubation, a dark blue precipitate outlined only viable cells. The precipitate was then solubilized using 0.08N HCl/isopropanol mixture and the absorbance measured with an ELISA plate reader (Dynatech MR600) using a test wavelength of 570 nm and a reference wavelength of 630 nm. The resulting optical density is directly proportional to the number of viable cells.
Assay [3] has as its system chick embryo retina. The experiment in a line: In Vitro Chick Retina Assay (excitotoxic lesions by NMDA or KA). The format is cell-based. Conditions: vs. NMDA 200 μM, 30 min at 37° C. An excerpt: [Olney, J. W., Price, M. T., Fuller, T. A., Labruyere, J., Samson, L., Carpenter, M., Mahan, K., "The Anti-Excitotoxic Effects of Certain Anesthetics, Analgesics and Sedative-Hypnotics", Neuroscience Letters, 68, 29-34, (1986)].
Using an approach similar to that earlier described [Reif-Lehrer, L., Bergenthal, J. and Hanninen, L., "Effects of Monosodium Glutamate on Chick Embryo Retina in Culture", Invest. Ophthalmol., 14, 114-12, (1975)], 15-day-old chick embryos were decapitated and their eyes removed and cut into quadrants after excising the cornea and removing the lens, vitreous and iris. The retinal quadrants were then gently separated from the pigment epithelium and incubated for 30 minutes at 37° C. in a standard balanced salt solution (BSS) to which test compounds, either excitatory amino acid agonists or potential antagonists or both, were added in various concentrations. As described elsewhere [Olney, J. W., Price, M. T., Samson, L. and Labruyere, J., "The Role of Specific Ions in Glutamate Neurotoxicity". Neurosci. […]

Where two headings read alike, the source gives them in different places.

Broadly, the ED50 is the dose that gives a 50% effect, or the effect in half of the subjects. With `NC(C(=O)O)c1ccc(CP(=O)(O)O)cc1` (stereo not shown) [Example VI, 4-(Phosphonomethyl)phenylglycine], the ED50 in assay [1] (po, i.g., 3-MPA 50 mg/kg i.p., read-out: 3-MPA Convulsions i.g. (ED50)) was 300 mg/kg; in assay [1] (sc, s.c. 30-40 minutes prior to 3-MPA 50 mg/kg i.p., read-out: 3-MPA Convulsions s.c. (ED50)), 6 mg/kg. Also, the “protection of neurons from glutamate toxicity” value in assay [2] is “Significant protection”. Besides, the “concentration for full antagonism against NMDA (complete prevention of toxic activity)” value in assay [3] was 50 µM.

The values above are taken from US4918064A, “Phenyl glycines for use in reducing neurotoxic injury” (G. D. Searle & Co., priority 1987, dated 1990).
